# Laboratory results from patent US20080318943A1, “Compounds and Uses Thereof - 848” (ASTRAZENECA AB, priority 2007, published 2008).
# Tests used:
# [1] = molecular target: T1, GABAA2 receptors (α2, β3, γ2 receptor subunits transfected into Sf9 cells) (Homo sapiens, UniProt P18507+P47869); test: GABAA2 Binding Method ([3H]-Flunitrazepam displacement); settings: [3H]-Flunitrazepam ~2 nM, α2β3γ2 Sf9 membranes, 1 hr at 4° C.
# T1 construct: host or cells: Sf9 cells (membranes)
# Procedure, shortened: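 Membranes from Sf9 cells expressing α2β3γ2 GABAA receptors incubated with ~2 nM (final) [3H]-flunitrazepam and test compound 1 h at 4 °C, then filtered on GF/B plates with cold-buffer washes. Flumazenil-defined controls; percent of control, IC50 and Ki calculated.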
# [2] = molecular target: T2, GABAA receptor α1β2γ2 (Homo sapiens, UniProt P14867+P18507); test: Two-electrode voltage-clamp potentiation of GABA EC10 current in Xenopus oocytes, GABAA1; assay type: cell-based; settings: percentage potentiation of GABA EC10 current divided by that of diazepam
# T2 construct: expressed in transfected cells; host or cells: Xenopus laevis oocytes injected with cRNA
# T2 sequence (P14867 28-456): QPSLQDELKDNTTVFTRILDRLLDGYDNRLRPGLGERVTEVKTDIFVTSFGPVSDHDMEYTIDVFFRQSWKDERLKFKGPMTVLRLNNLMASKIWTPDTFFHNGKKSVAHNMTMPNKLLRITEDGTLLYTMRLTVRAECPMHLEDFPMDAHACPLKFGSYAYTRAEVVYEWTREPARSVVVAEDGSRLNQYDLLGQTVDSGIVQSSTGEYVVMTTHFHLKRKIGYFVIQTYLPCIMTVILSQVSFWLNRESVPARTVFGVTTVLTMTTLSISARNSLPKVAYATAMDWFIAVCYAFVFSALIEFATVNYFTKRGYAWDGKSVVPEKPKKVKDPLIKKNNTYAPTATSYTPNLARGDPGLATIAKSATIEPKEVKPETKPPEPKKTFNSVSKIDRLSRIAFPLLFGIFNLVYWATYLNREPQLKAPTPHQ
# T2 sequence (P47870 25-512 partner limits assumed): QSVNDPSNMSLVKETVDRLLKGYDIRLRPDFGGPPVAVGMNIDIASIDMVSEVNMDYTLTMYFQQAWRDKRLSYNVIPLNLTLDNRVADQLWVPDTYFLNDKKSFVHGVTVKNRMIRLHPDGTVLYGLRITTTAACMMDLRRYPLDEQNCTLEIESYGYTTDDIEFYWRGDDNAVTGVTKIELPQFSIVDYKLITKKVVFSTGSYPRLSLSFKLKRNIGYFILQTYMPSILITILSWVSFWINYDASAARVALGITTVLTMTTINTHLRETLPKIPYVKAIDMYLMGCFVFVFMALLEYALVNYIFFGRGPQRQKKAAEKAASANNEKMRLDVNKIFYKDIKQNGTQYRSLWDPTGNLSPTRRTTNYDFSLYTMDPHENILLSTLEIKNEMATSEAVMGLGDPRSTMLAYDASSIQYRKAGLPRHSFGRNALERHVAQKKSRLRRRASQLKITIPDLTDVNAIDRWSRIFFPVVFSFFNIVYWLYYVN
# T2 sequence (P18507 40-475): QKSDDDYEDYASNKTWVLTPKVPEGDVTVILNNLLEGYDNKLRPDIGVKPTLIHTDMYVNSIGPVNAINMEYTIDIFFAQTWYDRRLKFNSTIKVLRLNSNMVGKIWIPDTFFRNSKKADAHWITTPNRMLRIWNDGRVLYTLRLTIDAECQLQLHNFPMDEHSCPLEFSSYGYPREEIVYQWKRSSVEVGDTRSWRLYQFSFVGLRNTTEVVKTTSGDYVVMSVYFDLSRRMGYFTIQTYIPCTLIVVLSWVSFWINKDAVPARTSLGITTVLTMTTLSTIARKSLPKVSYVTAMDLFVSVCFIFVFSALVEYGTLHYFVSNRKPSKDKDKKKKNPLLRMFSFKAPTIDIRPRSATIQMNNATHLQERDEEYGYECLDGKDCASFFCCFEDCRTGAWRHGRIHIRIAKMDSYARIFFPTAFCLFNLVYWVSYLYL
# Procedure, shortened: (§1)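 Human GABAA receptors expressed in Xenopus oocytes by cRNA injection (α:β:γ molar ratio ~1:1:10 for α1β2γ2, 1:1:1 for α2β3γ2), recorded 2-10 days later by two-electrode voltage clamp at −60 mV in ND-96, pH 7.5. Modulator preapplied 30 s before GABA at per-oocyte EC10. Peak-current percent potentiation over GABA alone, normalised to diazepam.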
# [3] = molecular target: T3, GABAA receptor α2β3γ2 (Homo sapiens, UniProt P18507+P47869); test: Two-electrode voltage-clamp potentiation of GABA EC10 current in Xenopus oocytes, GABAA2; assay type: cell-based; settings: percentage potentiation of GABA EC10 current divided by that of diazepam
# T3 construct: expressed in transfected cells; host or cells: Xenopus laevis oocytes injected with cRNA
# T3 sequence (P47869 29-451): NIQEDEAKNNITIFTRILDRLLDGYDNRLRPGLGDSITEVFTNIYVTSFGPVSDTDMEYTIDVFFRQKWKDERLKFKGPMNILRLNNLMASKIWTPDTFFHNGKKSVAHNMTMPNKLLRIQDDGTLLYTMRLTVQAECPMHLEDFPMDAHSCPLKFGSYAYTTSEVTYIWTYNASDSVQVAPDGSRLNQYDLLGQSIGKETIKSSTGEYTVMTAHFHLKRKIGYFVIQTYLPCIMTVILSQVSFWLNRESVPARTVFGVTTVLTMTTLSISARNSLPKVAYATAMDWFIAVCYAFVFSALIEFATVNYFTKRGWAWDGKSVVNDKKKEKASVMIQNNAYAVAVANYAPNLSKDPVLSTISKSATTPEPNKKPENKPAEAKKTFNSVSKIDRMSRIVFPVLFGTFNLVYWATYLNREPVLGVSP
# T3 sequence (P28472 26-473 partner): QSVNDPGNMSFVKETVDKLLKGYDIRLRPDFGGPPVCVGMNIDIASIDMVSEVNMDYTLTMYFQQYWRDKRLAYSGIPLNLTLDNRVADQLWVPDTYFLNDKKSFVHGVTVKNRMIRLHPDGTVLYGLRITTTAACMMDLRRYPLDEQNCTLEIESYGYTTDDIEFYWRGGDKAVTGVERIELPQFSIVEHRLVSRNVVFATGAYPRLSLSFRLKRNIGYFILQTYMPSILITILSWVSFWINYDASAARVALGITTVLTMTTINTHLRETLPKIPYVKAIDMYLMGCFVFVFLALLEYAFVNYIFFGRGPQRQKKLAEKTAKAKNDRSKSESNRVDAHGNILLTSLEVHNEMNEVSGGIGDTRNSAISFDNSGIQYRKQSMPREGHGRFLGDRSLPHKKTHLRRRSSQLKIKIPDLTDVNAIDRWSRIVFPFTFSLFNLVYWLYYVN
# T3 sequence (P18507 40-475): as the sequence (P18507 40-475) above
# Procedure, shortened: as §1
# T1 sequence (P47869 29-451): as the sequence (P47869 29-451) above
# T1 sequence (P28472 26-473 partner): as the sequence (P28472 26-473 partner) above
# T1 sequence (P18507 40-475): as the sequence (P18507 40-475) above
Structure (SMILES),Ki [1],Relative Potentiation for GABAA1 [2],Relative Potentiation for GABAA2 [3]
"COc1ncc(-c2cccc3c(N)c4c(nc23)CN(Cc2ccc(OC)c(OC)c2)C4=O)c(OC)n1 [9-amino-2-(3,4-dimethoxybenzyl)-5-(2,4-dimethoxypyrimidin-5-yl)-2,3-dihydro-1H-pyrrolo[3,4-b]quinolin-1-one]",13.5 nM,0.19,0.42
"Cc1cccc(C)c1-c1cccc2c(N)c3c(nc12)CN(C1CC1)C3=O [9-amino-2-cyclopropyl-5-(2,6-dimethylphenyl)-2,3-dihydro-1H-pyrrolo[3,4-b]quinolin-1-one]",23.9 nM,−0.07,0.025
"COc1ncc(-c2cccc3c(N)c4c(nc23)CN(C2CC2)C4=O)cc1C [9-amino-2-cyclopropyl-5-(6-methoxy-5-methylpyridin-3-yl)-2,3-dihydro-1H-pyrrolo[3,4-b]quinolin-1-one]",55.3 nM,0.088,0.08
"COc1ccc(-c2c(F)ccc3c(N)c4c(nc23)CN(C2CC2)C4=O)c(F)c1 [9-amino-2-cyclopropyl-6-fluoro-5-(2-fluoro-4-methoxyphenyl)-2,3-dihydro-1H-pyrrolo[3,4-b]quinolin-1-one]",7.27 nM,−0.036,0.055
"CCN1Cc2nc3c(-c4ccc(OC)cc4F)c(F)ccc3c(N)c2C1=O [9-amino-2-ethyl-6-fluoro-5-(2-fluoro-4-methoxyphenyl)-2,3-dihydro-1H-pyrrolo[3,4-b]quinolin-1-one]",1.49 nM,−0.04,0.05
"CCN1Cc2nc3c(-c4ccccc4F)c(F)ccc3c(N)c2C1=O [9-amino-2-ethyl-6-fluoro-5-(2-fluorophenyl)-2,3-dihydro-1H-pyrrolo[3,4-b]quinolin-1-one]",1.51 nM,−0.04,0.038
"CCN1Cc2nc3c(-c4ccc(F)cc4F)c(F)ccc3c(N)c2C1=O [9-amino-5-(2,4-difluorophenyl)-2-ethyl-6-fluoro-2,3-dihydro-1H-pyrrolo[3,4-b]quinolin-1-one]",3.85 nM,−0.038,0.064
"CCCN1Cc2nc3c(-c4cc(Cl)ccc4Cl)cccc3c(N)c2C1=O [9-amino-5-(2,5-dichlorophenyl)-2-propyl-2,3-dihydro-1H-pyrrolo[3,4-b]quinolin-1-one]",11.8 nM,0.31,0.32
"CCCN1Cc2nc3c(-c4cc(F)ccc4F)cccc3c(N)c2C1=O [9-amino-5-(2,5-difluorophenyl)-2-propyl-2,3-dihydro-1H-pyrrolo[3,4-b]quinolin-1-one]",34.8 nM,0.21,0.33
"CCN1Cc2nc3c(-c4c(F)cc(OC)cc4F)c(F)ccc3c(N)c2C1=O [9-amino-5-(2,6-difluoro-4-methoxyphenyl)-2-ethyl-6-fluoro-2,3-dihydro-1H-pyrrolo[3,4-b]quinolin-1-one]",4.5 nM,−0.09,−0.02
"COc1cccc(Cl)c1-c1cccc2c(N)c3c(nc12)CN(C1CCC1)C3=O [9-amino-5-(2-chloro-6-methoxyphenyl)-2-cyclobutyl-2,3-dihydro-1H-pyrrolo[3,4-b]quinolin-1-one]",2.22 nM,−0.15,0.051
"COc1cccc(Cl)c1-c1cccc2c(N)c3c(nc12)CN(C1CC1)C3=O [9-amino-5-(2-chloro-6-methoxyphenyl)-2-cyclopropyl-2,3-dihydro-1H-pyrrolo[3,4-b]quinolin-1-one]",14.9 nM,−0.1,0.052
"COc1cccc(Cl)c1-c1c(F)ccc2c(N)c3c(nc12)CN(C1CC1)C3=O [9-amino-5-(2-chloro-6-methoxyphenyl)-2-cyclopropyl-6-fluoro-2,3-dihydro-1H-pyrrolo[3,4-b]quinolin-1-one]",4.85 nM,−0.15,0.013

# Second part, the compound after the results:
Ki [1],Relative Potentiation for GABAA1 [2],Relative Potentiation for GABAA2 [3],Structure (SMILES)
1.5 nM,0.23,0.37,"COc1ccc(CN2Cc3nc4c(-c5cnccc5OC)cccc4c(N)c3C2=O)cc1OC [9-amino-2-(3,4-dimethoxybenzyl)-5-(4-methoxypyridin-3-yl)-2,3-dihydro-1H-pyrrolo[3,4-b]quinolin-1-one]"
3.35 nM,0.32,0.52,"COc1ccc(CN2Cc3nc4c(-c5cnccc5OC)cccc4c(N)c3C2=O)cc1 [9-amino-2-(4-methoxybenzyl)-5-(4-methoxypyridin-3-yl)-2,3-dihydro-1H-pyrrolo[3,4-b]quinolin-1-one]"
7.14 nM,−0.008,0.036,"CCN1Cc2nc3c(-c4ccc(OC)cc4F)cccc3c(N)c2C1=O [9-amino-2-ethyl-5-(2-fluoro-4-methoxyphenyl)-2,3-dihydro-1H-pyrrolo[3,4-b]quinolin-1-one]"
22.6 nM,0.052,0.068,"CCN1Cc2nc3c(-c4cccc(F)c4OC)cccc3c(N)c2C1=O [9-amino-2-ethyl-5-(3-fluoro-2-methoxyphenyl)-2,3-dihydro-1H-pyrrolo[3,4-b]quinolin-1-one]"
42.5 nM,0.012,0.065,"CCN1Cc2nc3c(-c4ccc(OC)c(F)c4)cccc3c(N)c2C1=O [9-amino-2-ethyl-5-(3-fluoro-4-methoxyphenyl)-2,3-dihydro-1H-pyrrolo[3,4-b]quinolin-1-one]"
44.6 nM,0.38,0.29,"CCCN1Cc2nc3c(-c4cccc(C)c4)cccc3c(N)c2C1=O [9-amino-2-propyl-5-(3-methylphenyl)-2,3-dihydro-1H-pyrrolo[3,4-b]quinolin-1-one]"
10.3 nM,0.45,0.64,"COc1ccc(CN2Cc3nc4c(-c5cc(C)nn5C)cccc4c(N)c3C2=O)cc1 [9-amino-5-(1,3-dimethyl-1H-pyrazol-5-yl)-2-(4-methoxybenzyl)-2,3-dihydro-1H-pyrrolo[3,4-b]quinolin-1-one]"
21.5 nM,0.49,0.57,"CCCN1Cc2nc3c(-c4cc(C)nn4C)cccc3c(N)c2C1=O [9-amino-5-(1,3-dimethyl-1H-pyrazol-5-yl)-2-propyl-2,3-dihydro-1H-pyrrolo[3,4-b]quinolin-1-one]"
49.8 nM,0.25,0.31,"CCCN1Cc2nc3c(-c4ccc(OC)cc4OC)cccc3c(N)c2C1=O [9-amino-5-(2,4-dimethoxyphenyl)-2-propyl-2,3-dihydro-1H-pyrrolo[3,4-b]quinolin-1-one]"
56.8 nM,0.22,0.2,"CCCN1Cc2nc3c(-c4cc(C)ccc4C)cccc3c(N)c2C1=O [9-amino-5-(2,5-dimethylphenyl)-2-propyl-2,3-dihydro-1H-pyrrolo[3,4-b]quinolin-1-one]"
2.63 nM,0.45,0.41,"CCCN1Cc2nc3c(-c4ccc(C)nc4C)cccc3c(N)c2C1=O [9-amino-5-(2,6-dimethylpyridin-3-yl)-2-propyl-2,3-dihydro-1H-pyrrolo[3,4-b]quinolin-1-one]"
6.63 nM,0.44,0.61,"CCCN1Cc2nc3c(-c4cc(C)cnc4Cl)cccc3c(N)c2C1=O [9-amino-5-(2-chloro-5-methylpyridin-3-yl)-2-propyl-2,3-dihydro-1H-pyrrolo[3,4-b]quinolin-1-one]"
12.5 nM,0.39,0.39,"CCCN1Cc2nc3c(-c4cc(OC)ccc4F)cccc3c(N)c2C1=O [9-amino-5-(2-fluoro-5-methoxyphenyl)-2-propyl-2,3-dihydro-1H-pyrrolo[3,4-b]quinolin-1-one]"
19.7 nM,0.22,0.37,"CCCN1Cc2nc3c(-c4ccc(C)nc4F)cccc3c(N)c2C1=O [9-amino-5-(2-fluoro-6-methylpyridin-3-yl)-2-propyl-2,3-dihydro-1H-pyrrolo[3,4-b]quinolin-1-one]"
6.82 nM,0.18,0.32,"COc1ccc(CN2Cc3nc4c(-c5cccnc5F)cccc4c(N)c3C2=O)cc1 [9-amino-5-(2-fluoropyridin-3-yl)-2-(4-methoxybenzyl)-2,3-dihydro-1H-pyrrolo[3,4-b]quinolin-1-one]"
47.2 nM,0.17,0.37,"CCCN1Cc2nc3c(-c4cc(C)ccc4OC)cccc3c(N)c2C1=O [9-amino-5-(2-methoxy-5-methylphenyl)-2-propyl-2,3-dihydro-1H-pyrrolo[3,4-b]quinolin-1-one]"
